Laboratory results reported in article PMC4965013, “Open Source Drug Discovery with the Malaria Box Compound Collection for Neglected Diseases and Beyond” (PLoS Pathogens, 2016).
One block for each compound: values may come before it.

How the values were obtained:
[1] = test system: P. falciparum; assay: EC50 listed in S2 Table Metabolomics (used to set the concentration tested); format: cell-based; conditions: Plasmodium falciparum; EC50 used for Factor_XEC50 in metabolomics; read-out: EC50_nM
[2] = test system: P. falciparum 3D7 trophozoites; assay: Metabolomic fingerprint profiling LC-MS; format: cell-based, Plasmodium falciparum; design: UDP-D-glucose / ADP-D-glucose: unit not given here; conditions: for Acetyllysine / N-acetyl-L-ornithine / N-carbamoyl-L-aspartate / NADPH / dAMP / dCMP / dTDP / dTMP / dTTP / dihydroorotate / orotate / DLH / DLS/SDL/SID / PD / PEE / PVNF / 3-phosphoglycerate / ADP-D-glucose / ATP / CDP / D-sedoheptulose-1/7-phosphate / FAD / GMP / NAD+ / NADP+ / Octoluse Bisphosphate / Pyroglutamic acid / UDP-D-glucose / UDP-D-glucuronate / UDP-N-acetyl-glucosamine / UDP / UMP / UTP / a-ketoglutarate / citrate/isocitrate / cytidine / dATP / dGMP/AMP / fumarate / glucose-1/6-phosphate / glycerate / guanine / guanosine / hypoxanthine / indole / inosine / nicotinate / ornithine / phosphoenolpyruvate / pyruvate / ribose-phosphate / sarcosine/alanine / sn-glycerol-3-phosphate / succinate/methylmalonic acid / uridine / xanthosine: S2 Table Metabolomics; for Acetyllysine: metabolite Acetyllysine; for N-acetyl-L-ornithine: metabolite N-acetyl-L-ornithine; for N-carbamoyl-L-aspartate: metabolite N-carbamoyl-L-aspartate; for NADPH: metabolite NADPH; for dAMP: metabolite dAMP; for dCMP: metabolite dCMP; for dTDP: metabolite dTDP; for dTMP: metabolite dTMP; for dTTP: metabolite dTTP; for dihydroorotate: metabolite dihydroorotate; for orotate: metabolite orotate; for DLH: peptide DLH; for DLS/SDL/SID: peptide DLS/SDL/SID; for PD: peptide PD; for PEE: peptide PEE; for PVNF: peptide PVNF; for 3-phosphoglycerate: metabolite 3-phosphoglycerate; for ADP-D-glucose: metabolite ADP-D-glucose; for ATP: metabolite ATP; for CDP: metabolite CDP; for CDP / D-sedoheptulose-1/7-phosphate / GMP / Octoluse Bisphosphate / UDP / UMP / UTP / citrate/isocitrate / dGMP/AMP / fumarate / glucose-1/6-phosphate / glycerate / guanine / guanosine / inosine / pyruvate / sarcosine/alanine / succinate/methylmalonic acid / uridine / xanthosine: change in metabolite level after compound treatment; for D-sedoheptulose-1/7-phosphate: metabolite D-sedoheptulose-1/7-phosphate; for FAD: metabolite FAD; for GMP: metabolite GMP; for NAD+: metabolite NAD+; for NADP+: metabolite NADP+; for Octoluse Bisphosphate: metabolite Octoluse Bisphosphate; for Pyroglutamic acid: metabolite Pyroglutamic acid; for UDP-D-glucose: metabolite UDP-D-glucose; for UDP-D-glucuronate: metabolite UDP-D-glucuronate; for UDP-N-acetyl-glucosamine: metabolite UDP-N-acetyl-glucosamine; for UDP: metabolite UDP; for UMP: metabolite UMP; for UTP: metabolite UTP; for a-ketoglutarate: metabolite a-ketoglutarate; for citrate/isocitrate: metabolite citrate/isocitrate; for cytidine: metabolite cytidine; for dATP: metabolite dATP; for dGMP/AMP: metabolite dGMP/AMP; for fumarate: metabolite fumarate; for glucose-1/6-phosphate: metabolite glucose-1/6-phosphate; for glycerate: metabolite glycerate; for guanine: metabolite guanine; for guanosine: metabolite guanosine; for hypoxanthine: metabolite hypoxanthine; for indole: metabolite indole; for inosine: metabolite inosine; for 2_3-Diphosphoglyceric acid / 4-phosphopantothenate / 6-phospho-D-gluconate / FMN / IMP / Pyrophosphate / Sedoheptoluse bisphosphate / cyclic-AMP / glutathione disulfide / lactate / myo-inositol: metabolite level change after treatment; for nicotinate: metabolite nicotinate; for ornithine: metabolite ornithine; for phosphoenolpyruvate: metabolite phosphoenolpyruvate; for pyruvate: metabolite pyruvate; for ribose-phosphate: metabolite ribose-phosphate; for sarcosine/alanine: metabolite sarcosine/alanine; for sn-glycerol-3-phosphate: metabolite sn-glycerol-3-phosphate; for succinate/methylmalonic acid: metabolite succinate/methylmalonic acid; for uridine: metabolite uridine; for xanthosine: metabolite xanthosine

EC50 [1]: 119 nM
SMILES: CCOC(=O)c1cn(CC)c2cc(N3CCCCC3)c(F)cc2c1=O [MMV665827]
Acetyllysine [2]: 0.6167
N-acetyl-L-ornithine [2]: 0.5501
N-carbamoyl-L-aspartate [2]: 4.792
NADPH [2]: 0.6598
dAMP [2]: 0.7737
dCMP [2]: 1.737
dTDP [2]: 0.1707
dTMP [2]: 0.8282
dTTP [2]: 0.03923
dihydroorotate [2]: 4.825
orotate [2]: -0.5812
DLH [2]: -0.7896
DLS/SDL/SID [2]: 0.01567
PD [2]: 0.7077
PEE [2]: -1.44
PVNF [2]: -0.1312
3-phosphoglycerate [2]: -0.02186
ADP-D-glucose [2]: 0.2064
ATP [2]: 0.6896
CDP [2]: 0.1387
D-sedoheptulose-1/7-phosphate [2]: 0.4202
FAD [2]: 0.7349
GMP [2]: -0.6725
NAD+ [2]: 0.4401
NADP+ [2]: 0.5706
Octoluse Bisphosphate [2]: 0.2411
Pyroglutamic acid [2]: -0.2796
UDP-D-glucose [2]: 0.1953
UDP-D-glucuronate [2]: -0.1324
UDP-N-acetyl-glucosamine [2]: 0.2567
UDP [2]: 0.4721
UMP [2]: -1.447
UTP [2]: -1.04
a-ketoglutarate [2]: -0.2461
citrate/isocitrate [2]: -1.463
cytidine [2]: 0.4678
dATP [2]: 0.6493
dGMP/AMP [2]: 0.07314
fumarate [2]: -0.2241
glucose-1/6-phosphate [2]: 1.8807
glycerate [2]: -0.09674
guanine [2]: 1.02
guanosine [2]: 0.7998
hypoxanthine [2]: -0.3352
indole [2]: -0.0107
inosine [2]: 0.5749
2_3-Diphosphoglyceric acid [2]: 0.1079
4-phosphopantothenate [2]: 0.2143
6-phospho-D-gluconate [2]: 0.3355
FMN [2]: 0.4894
IMP [2]: 0.7697
Pyrophosphate [2]: -1.117
Sedoheptoluse bisphosphate [2]: 0.6312
cyclic-AMP [2]: 0.6768
glutathione disulfide [2]: 0.6276
lactate [2]: 1.255
myo-inositol [2]: 2.498
nicotinate [2]: -0.197
ornithine [2]: 0.8346
phosphoenolpyruvate [2]: -0.2956
pyruvate [2]: 0.5345
ribose-phosphate [2]: 0.3041
sarcosine/alanine [2]: 0.4367
sn-glycerol-3-phosphate [2]: 0.2478
succinate/methylmalonic acid [2]: -0.3191
uridine [2]: 0.6011
xanthosine [2]: -0.8841

EC50 [1]: 32.8 nM
SMILES: Cc1cc(NC(=O)C2c3ccccc3C(=O)N(CC(C)C)C2c2cccs2)no1 (stereo not drawn) [MMV006429]
Acetyllysine [2]: -4.876
N-acetyl-L-ornithine [2]: -3.5354
N-carbamoyl-L-aspartate [2]: -2.585
NADPH [2]: 1.978
dAMP [2]: 2.292
dCMP [2]: 1.167
dTDP [2]: 1.627
dTMP [2]: 3.344
dTTP [2]: 1.446
dihydroorotate [2]: -3.6651
orotate [2]: -0.181
DLH [2]: -5.907
DLS/SDL/SID [2]: -4.536
PD [2]: -2.845
PEE [2]: -3.543
PVNF [2]: -6.513
3-phosphoglycerate [2]: 0.34
ADP-D-glucose [2]: -0.1376
ATP [2]: -1.344
CDP [2]: -0.4641
D-sedoheptulose-1/7-phosphate [2]: -1.187
FAD [2]: -1.625
GMP [2]: -1.884
NAD+ [2]: -0.4933
NADP+ [2]: -0.001455
Octoluse Bisphosphate [2]: -2.069
Pyroglutamic acid [2]: 0.2334
UDP-D-glucose [2]: -0.07653
UDP-D-glucuronate [2]: -0.002659
UDP-N-acetyl-glucosamine [2]: 0.06871
UDP [2]: -1.216
UMP [2]: -0.6265
UTP [2]: -1.299
a-ketoglutarate [2]: 0.2879
citrate/isocitrate [2]: -0.09158
cytidine [2]: 0.5285
dATP [2]: 0.0138
dGMP/AMP [2]: -0.6616
fumarate [2]: -0.1647
glucose-1/6-phosphate [2]: -1.368
glycerate [2]: -0.8344
guanine [2]: 0.5068
guanosine [2]: 1.214
hypoxanthine [2]: 0.09881
indole [2]: 0.1757
inosine [2]: 0.2569
2_3-Diphosphoglyceric acid [2]: -1.036
4-phosphopantothenate [2]: -0.6242
6-phospho-D-gluconate [2]: -0.2953
FMN [2]: -0.07748
IMP [2]: -0.08419
Pyrophosphate [2]: -1.06
Sedoheptoluse bisphosphate [2]: -0.9732
cyclic-AMP [2]: -0.7986
glutathione disulfide [2]: -0.4517
lactate [2]: -0.7779
myo-inositol [2]: -1.114
nicotinate [2]: 0.9425
ornithine [2]: -0.1056
phosphoenolpyruvate [2]: 0.447
pyruvate [2]: -2.0102
ribose-phosphate [2]: -0.6145
sarcosine/alanine [2]: -1.58
sn-glycerol-3-phosphate [2]: 1.267
succinate/methylmalonic acid [2]: 0.2625
uridine [2]: 1.463
xanthosine [2]: -1.351

EC50 [1]: 216 nM
SMILES: CCOC(=O)c1c(C)n(-c2ccc(Cl)cc2)c2ccc(OC(=O)C=Cc3ccccc3)cc12 [MMV666600]
Acetyllysine [2]: 0.2658
N-acetyl-L-ornithine [2]: 0.3826
N-carbamoyl-L-aspartate [2]: 0.5043
NADPH [2]: -0.1791
dAMP [2]: 0.1797
dCMP [2]: 0.7303
dTDP [2]: 0.6846
dTMP [2]: 0.3563
dTTP [2]: 0.1062
dihydroorotate [2]: 0.2265
orotate [2]: 0.0746
DLH [2]: 0.4837
DLS/SDL/SID [2]: 0.1278
PD [2]: 0.2139
PEE [2]: 0.4962
PVNF [2]: 0.206
3-phosphoglycerate [2]: 0.1223
ADP-D-glucose [2]: 0.3003
ATP [2]: 0.3662
CDP [2]: 0.7598
D-sedoheptulose-1/7-phosphate [2]: 0.476
FAD [2]: 0.1354
GMP [2]: -0.291
NAD+ [2]: 0.8191
NADP+ [2]: 0.2752
Octoluse Bisphosphate [2]: 0.3013
Pyroglutamic acid [2]: 0.03669
UDP-D-glucose [2]: 0.1154
UDP-D-glucuronate [2]: 0.1408
UDP-N-acetyl-glucosamine [2]: 0.05839
UDP [2]: 0.7125
UMP [2]: 0.02013
UTP [2]: 0.206
a-ketoglutarate [2]: -0.01449
citrate/isocitrate [2]: 0.5294
cytidine [2]: -0.3168
dATP [2]: 0.2753
dGMP/AMP [2]: 0.4942
fumarate [2]: 0.3444
glucose-1/6-phosphate [2]: 0.5114
glycerate [2]: 0.0963
guanine [2]: 0.1348
guanosine [2]: -0.1252
hypoxanthine [2]: 0.2037
indole [2]: -0.0001746
inosine [2]: 0.0653
2_3-Diphosphoglyceric acid [2]: 0.1463
4-phosphopantothenate [2]: 0.3013
6-phospho-D-gluconate [2]: 0.08781
FMN [2]: -0.2862
IMP [2]: 0.3406
Pyrophosphate [2]: 0.1816
Sedoheptoluse bisphosphate [2]: 0.1719
cyclic-AMP [2]: 0.1868
glutathione disulfide [2]: 0.1725
lactate [2]: 0.1409
myo-inositol [2]: -0.8322
nicotinate [2]: 0.07374
ornithine [2]: 0.01544
phosphoenolpyruvate [2]: 0.01685
pyruvate [2]: -0.07405
ribose-phosphate [2]: 0.1875
sarcosine/alanine [2]: -0.13
sn-glycerol-3-phosphate [2]: -0.02611
succinate/methylmalonic acid [2]: 0.1082
uridine [2]: 0.1838
xanthosine [2]: 0.13
